# Reference: patent publication US20110195896A1 (CASE WESTERN RESERVE UNIVERSITY, priority 2008, published 2011)
# Entries after “also recorded” stand apart in the source; their conditions may differ. Read-outs that look alike come from different tables or passages of the source.
# Key:
# [1] = target: insulin receptor isoform B (IR-B, HIRB) (Homo sapiens, UniProt P06213); experiment: Competitive receptor-binding assay, 125I-insulin tracer, epitope-tagged receptor antibody capture (IR-B); details: normalized to 100% = binding affinity of wild-type human insulin for IR-A
# Protocol: (§1) Relative activity may be defined by comparison of the dissociation constants (Keq) governing the hormone-receptor binding reaction.
# (§2) Receptor-Binding Assays. […] This assay employs the purified epitope-tagged receptor (IR-A, IR-B, or IGFR) using a microtiter-plate antibody-capture assay as known in the art. The epitope tag consists of three tandem repeats of the FLAG epitope. Microtiter strip plates (Nunc Maxisorb) were incubated overnight at 4° C. with anti-FLAG IgG (100 μl/well of […] in phosphate-buffered saline). Binding data were analyzed by a single-site heterologous competition binding model. A corresponding microtiter plate antibody assay using the epitope-tagged IGF Type I receptor was employed to assess cross-binding of analogues to this homologous receptor.
# insulin receptor = insulin receptor (Homo sapiens, UniProt P06213); details: background; cited from earlier work
# [2] = target: insulin receptor isoform A (IR-A, HIRA) (Homo sapiens, UniProt P06213); experiment: Competitive receptor-binding assay, 125I-insulin tracer, epitope-tagged receptor antibody capture (IR-A); details: ratio of IR-A to IR-B binding
# Protocol: as §1, §2
# [3] = target: IGF Type I receptor (IGFR) (Homo sapiens, UniProt P08069); experiment: Competitive receptor-binding assay, epitope-tagged IGF Type I receptor
# Protocol: as §1, §2
# Chain of IGF Type I receptor (IGFR) (P08069 31-736 limits assumed): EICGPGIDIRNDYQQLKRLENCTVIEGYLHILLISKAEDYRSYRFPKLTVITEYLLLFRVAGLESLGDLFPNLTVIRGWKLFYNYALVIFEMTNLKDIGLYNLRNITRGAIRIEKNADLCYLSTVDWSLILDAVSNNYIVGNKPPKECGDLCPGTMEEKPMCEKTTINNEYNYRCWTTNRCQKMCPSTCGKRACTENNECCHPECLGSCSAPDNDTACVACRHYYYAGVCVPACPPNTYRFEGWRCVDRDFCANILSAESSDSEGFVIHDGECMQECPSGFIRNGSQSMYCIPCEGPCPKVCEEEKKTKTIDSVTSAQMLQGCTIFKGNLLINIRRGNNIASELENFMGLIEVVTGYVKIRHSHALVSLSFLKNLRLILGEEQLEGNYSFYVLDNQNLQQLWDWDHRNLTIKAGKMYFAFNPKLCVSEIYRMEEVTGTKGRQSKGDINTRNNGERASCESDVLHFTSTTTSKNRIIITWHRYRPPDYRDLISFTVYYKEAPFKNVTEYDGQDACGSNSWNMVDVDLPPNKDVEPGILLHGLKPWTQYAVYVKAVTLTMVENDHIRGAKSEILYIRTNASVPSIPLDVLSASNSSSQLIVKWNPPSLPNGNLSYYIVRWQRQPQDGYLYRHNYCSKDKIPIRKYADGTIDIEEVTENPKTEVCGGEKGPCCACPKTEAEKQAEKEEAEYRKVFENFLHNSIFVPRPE
# Chain of IGF Type I receptor (IGFR) (P08069 741-1367 partner limits assumed): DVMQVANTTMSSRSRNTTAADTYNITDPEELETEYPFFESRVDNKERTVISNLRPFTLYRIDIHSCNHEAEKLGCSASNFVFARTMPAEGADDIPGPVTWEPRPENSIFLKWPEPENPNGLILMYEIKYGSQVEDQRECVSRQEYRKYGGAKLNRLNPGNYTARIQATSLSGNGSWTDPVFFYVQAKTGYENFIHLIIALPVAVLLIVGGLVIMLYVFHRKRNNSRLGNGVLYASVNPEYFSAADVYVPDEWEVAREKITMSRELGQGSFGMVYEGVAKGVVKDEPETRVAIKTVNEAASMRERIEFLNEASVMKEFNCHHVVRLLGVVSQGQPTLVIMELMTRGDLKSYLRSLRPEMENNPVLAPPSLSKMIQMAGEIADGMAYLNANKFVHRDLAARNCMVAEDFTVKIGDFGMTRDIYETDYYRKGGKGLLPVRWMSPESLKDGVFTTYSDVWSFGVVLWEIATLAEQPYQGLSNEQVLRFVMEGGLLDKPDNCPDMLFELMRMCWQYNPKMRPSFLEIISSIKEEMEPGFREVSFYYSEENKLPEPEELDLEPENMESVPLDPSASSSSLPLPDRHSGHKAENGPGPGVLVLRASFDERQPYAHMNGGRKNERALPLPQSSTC
compound,measurement,setting,value
insulin-like growth factor II [IGF-II],RELATIVE AFFINITY INSULIN RECEPTOR Isoform B,[1],4%
same,affinity for either IR isoform relative to human insulin,insulin receptor,< 20%
same,selectivity / preference for IR-A relative to IR-B,[2],between fourfold and tenfold; also recorded: greater than twofold preference for IR-A
Lantus ®,IGFR Relative Affinity,[3]; absolute number relative to IGF-1 (=1),0.015
same,IGFR Relative Affinity,[3]; absolute number relative to unmodified human insulin (=1),2-3
same,Kd,[3]; read-out: IGFR Kd,3.14 ± 0.44 nM
"CC[C@H](C)[C@@H]1NC(=O)CNC(=O)[C@H](CCCNC(=N)N)NC(=O)[C@H](CCCNC(=N)N)NC(=O)[C@@H]2CCCN2C(=O)CNC(=O)CNC(=O)CNC(=O)[C@H]([C@@H](C)O)NC(=O)[C@@H]2CCCN2C(=O)[C@H](CC(=O)O)NC(=O)[C@H]([C@@H](C)O)NC(=O)[C@H](Cc2ccc(O)cc2)NC(=O)[C@H](Cc2ccccc2)NC(=O)[C@H](Cc2ccccc2)NC(=O)CNC(=O)[C@H](CCCNC(=N)N)NC(=O)[C@H](CCC(=O)O)NC(=O)CNC(=O)[C@@H]2CSSC[C@@H](C(=O)N[C@@H](CC(N)=O)C(=O)O)NC(=O)[C@H](Cc3ccc(O)cc3)NC(=O)[C@H](CC(N)=O)NC(=O)[C@H](CCC(=O)O)NC(=O)[C@H](CC(C)C)NC(=O)[C@H](CCC(N)=O)NC(=O)[C@H](Cc3ccc(O)cc3)NC(=O)[C@H](CC(C)C)NC(=O)[C@H](CO)NC(=O)[C@@H]3CSSC[C@H](NC(=O)[C@H](CCC(N)=O)NC(=O)[C@H](CCC(=O)O)NC(=O)[C@H](C(C)C)NC1=O)C(=O)N[C@@H](CSSC[C@H](NC(=O)[C@H](CC(C)C)NC(=O)[C@H](Cc1c[nH]cn1)NC(=O)[C@H](CCC(N)=O)NC(=O)[C@H](CC(N)=O)NC(=O)[C@@H](NC(=O)[C@@H](N)Cc1ccccc1)C(C)C)C(=O)NCC(=O)N[C@@H](CO)C(=O)N[C@@H](Cc1c[nH]cn1)C(=O)N[C@@H](CC(C)C)C(=O)N[C@@H](C(C)C)C(=O)N[C@@H](CCC(=O)O)C(=O)N[C@@H](C)C(=O)N[C@@H](CC(C)C)C(=O)N[C@@H](Cc1ccc(O)cc1)C(=O)N[C@@H](CC(C)C)C(=O)N[C@@H](C(C)C)C(=O)N2)C(=O)N[C@@H](Cc1c[nH]cn1)C(=O)N[C@@H](CO)C(=O)N[C@@H]([C@@H](C)CC)C(=O)N3 [[His^A8, Asp^B28, Pro^B29]-SCI]",Kd,[3],27.6 ± 1.18 nM
